The target of the test is Urease (Canavalia ensiformis, UniProt P07374). As to the kind of experiment: Urease Inhibition Assay. The conditions noted are these: pH 6.8; 30 °C. On the procedure: Reaction mixtures comprising 25 μL of enzyme (jack bean urease) solution and 55 μL of buffer containing 100 mM urea were incubated with 5 μL of test compound (0.5 mM) at 30°C for 15 min in 96-well plates. Urease activity was determined by measuring the ammonia production using the indophenol method, as described by Weatherburn11. Briefly, 45 μL of each phenol reagent (1% (w/v) phenol and 0.005% (w/v) sodium nitroprussside) and 70 μL of alkali reagent (0.5% (w/v) NaOH and 0.1% active chloride, NaOCl) were added to each well. The increasing absorbanceat 630 nm was measured after 50 min, using a microplate reader (Molecular Devices, Sunnyvale, CA, USA). All reactions were performed in triplicate in a final volume of 200 μL. The results (change in absorbance per min) were processed using SoftMax Pro software (Molecular Devices). The entire assay was performed at pH 6.8.
Urease, sequence (P07374 whole entry): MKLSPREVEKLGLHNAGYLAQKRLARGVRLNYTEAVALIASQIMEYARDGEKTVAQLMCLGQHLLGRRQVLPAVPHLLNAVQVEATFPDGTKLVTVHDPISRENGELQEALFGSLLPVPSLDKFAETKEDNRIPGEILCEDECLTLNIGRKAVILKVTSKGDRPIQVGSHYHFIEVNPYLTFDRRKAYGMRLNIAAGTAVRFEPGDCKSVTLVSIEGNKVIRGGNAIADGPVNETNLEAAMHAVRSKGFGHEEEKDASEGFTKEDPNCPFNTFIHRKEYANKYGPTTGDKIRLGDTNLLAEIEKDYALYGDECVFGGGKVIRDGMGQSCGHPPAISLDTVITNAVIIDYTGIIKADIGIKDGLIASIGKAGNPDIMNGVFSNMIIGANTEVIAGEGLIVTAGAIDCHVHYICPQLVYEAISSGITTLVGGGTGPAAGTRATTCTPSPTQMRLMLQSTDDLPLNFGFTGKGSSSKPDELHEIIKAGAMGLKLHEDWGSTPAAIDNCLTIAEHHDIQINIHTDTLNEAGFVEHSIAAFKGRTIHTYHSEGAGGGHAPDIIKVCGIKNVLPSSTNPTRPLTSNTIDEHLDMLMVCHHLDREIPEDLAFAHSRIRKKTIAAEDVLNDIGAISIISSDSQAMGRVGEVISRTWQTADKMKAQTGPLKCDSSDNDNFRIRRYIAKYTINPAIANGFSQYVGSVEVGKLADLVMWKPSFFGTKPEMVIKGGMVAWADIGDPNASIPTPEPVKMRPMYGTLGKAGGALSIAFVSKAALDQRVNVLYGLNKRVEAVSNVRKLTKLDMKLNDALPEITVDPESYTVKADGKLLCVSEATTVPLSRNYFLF
With `O=c1c2cc(O)ccc2oc2cc(O)cc(O)c12` [1,3,7-trihydroxy-9H-xanthen-9-one], the half-inhibitory concentration (IC50) (as a rule, the concentration needed to halve the response being measured) is 138 µM.

`O=c1c2cccc(O)c2oc2c(O)c(O)ccc12` [US9114126, MB5] showed a concentration for half-maximal inhibition (IC50) of 37.9 µM.

On to `CCCCCCCCCCCCCCCCCCCCCCCCOC(=O)C=Cc1ccc(O)c(O)c1` [Tetracosyl 3-(3,4-dihydroxyphenyl) acrylate (2)], for which the half-inhibitory concentration (IC50) turned out to be 21 µM.

The record behind these values is BindingDB's records for doi:10.3109/14756360903179385 (University of Peshawar, 2010).
